We go through 14 molecules from patent US20050020544A1, “Bicyclic CB2 cannabinoid receptor ligands” (priority 2002, published 2005).

The target in one experiment is human CB2 receptor (Homo sapiens, UniProt P34972). Nature of the experiment: biochemical. It is filed as binding. Further details: purchased Perkin Elmer/NEN; host or cells: CHO cells, stably transfected (membranes). The settings on record: for CB2/CB1 affinity ratio: IC50 CB1/IC50 CB2; for IC50: displacement of [3H]WIN 55212-2, hCB2 CHO membranes. As for the experimental part: (§1) In the present invention, binding affinity is represented by the IC50 value, namely the concentration of a test compound that will displace 50% of a radiolabeled agonist from the CB receptors. […] Preferably these ratios will be obtained for human CB1 and CB2 receptors. The selectivity toward CB2, denoted CB2/CB1 affinity, is calculated as the IC50 value obtained by the test compound for the displacement of the CB1 specific radioligand divided by the IC50 value obtained for the displacement of the CB2 specific radioligand, i.e. the IC50 CB1/IC50 CB2.
The affinities of the novel bicyclic analogs to the CB2 receptor were determined by their ability to displace [^3H]WIN 55212-2 from the receptor in membranes derived from hCB2 stably transfected CHO cells (Perkin Elmer/NEN). Membranes were diluted in assay buffer (10 mM HEPES, 1 mM MgCl2, 1 mM EDTA, 0.3 mg/ml BSA, pH=7.4) to 500 μg protein/ml. 50 μl of diluted membranes (25 μg) were incubated with 0.8 nM of [^3H]WIN 55212-2 in the presence or absence of several concentrations of the bicyclic test compounds in a total volume of 1 ml. Tested compounds were dissolved and diluted as previously described for the hCB1 assay. Non-specific binding was measured by the addition of 10 μM CP 55940. Following 40 minutes incubation at 30° C. reactions were filtered as previously described. Filters for all binding assays were counted in a β-counter and log of analog concentration versus % of binding was plotted. IC50 values were extrapolated from this plot.
(§2) Binding to CB1 is measured by competitive inhibition of [^3H]CP55940 in HEK-293 cells stably transfected with the human CB1 receptor gene. Binding to CB2 is measured by competitive inhibition of [^3H]WIN55212-2 in CHO cells stably transfected with the human CB2 receptor gene.

Another experiment deals with ICR male mice. Nature of the experiment: Tail flick model for acute peripheral pain, i.p. It is filed as in vivo, mouse. As for the experimental part: ICR male mice (20-30 g average body weight, Harlan, Israel) were injected i.p. at the volume dose of 5 ml/kg. Each treatment group contained at least 6 animals. Morphine HCl was used as positive control at the final dose of 5 mg/kg. Its vehicle, saline, was also included as control. The test compounds were dissolved in CREMOPHOR EL®:ethanol and diluted 1:20 in saline prior to injection, this second type of vehicle was also included as negative control. The final dose injected varied from 0.1 to 10 mg/kg. At predetermined time points after treatment injection, the animals were placed in the tail flick system (Socrel, model DS 20). Animals were gently held while their tails were located above the photoelectric cell. The tails were then illuminated (21V) at 2 cm from the distal tip and the latency time, measured in seconds, was recorded in duplicates. At the end of the study, the animals were euthanized by i.p. injection of 100 mg/kg sodium pentobarbitone.
Two parameters were used to analyze the results, the latency time and the % of animals showing analgesia. […] The results in both cases are expressed as mean±SE. The differences between the latency times or the % of animals showing analgesia among various treatment groups was analyzed by analysis of variance (ANOVA) followed by post-hoc Tukey's test (for latency) or Fisher's exact test (for % animals). A value of p<0.05 is considered to be statistically significant.

The next experiment concerns the target T1, human CB1 receptor (Homo sapiens, UniProt P21554).
T1 construct: purchased Perkin Elmer/NEN; host or cells: HEK-293 cells, stably transfected (membranes)
Nature of the experiment: biochemical. The experiment is classed as binding. The settings on record: displacement of [3H]CP55940, hCB1 HEK-293 membranes; read-out: CB1 IC50. As for the experimental part: as §1
The CB1 binding assays were performed by testing the ability of the new compounds to displace [^3H]CP55940 from the CB1 receptor on membranes derived from hCB1 stably transfected HEK-293 cells (Perkin Elmer/NEN). Membranes were diluted in the assay buffer (50 mM Tris-HCl, 2.5 mM EDTA, 5 mM MgCl2, 1 mg/ml BSA, pH=7.4) to 500 μg protein/ml. 50 μl of diluted membranes (25 μg) were incubated with [^3H]CP55940 in the presence or absence of the bicyclic test compounds in a total volume of 0.5 ml. Tested compounds were dissolved in DMSO and diluted in the assay buffer to a final concentration of 0.1% solvent. Control samples were added with identical amount of vehicle. Non-specific binding was measured by the addition of 10 μM of WIN 55212-2. Following 1.5 hours incubation at 30° C. reactions were filtered through Whatman 934A/H filters (presoaked with 0.1% Polyethylenimine (PEI)).
as §2
A general note: Loss of bound radioactivity is the signal in a displacement assay; it reports binding, not function.

A further experiment has as its system Male Sprague Dawley rats. Nature of the experiment: Inflammatory pain: carrageenan paw edema in rats, thermal and mechanical stimuli. The experiment is classed as in vivo, rat. The settings on record: for ΔForce (tactile stimulus) / ΔLT (thermal stimulus): 10 mg/kg i.p., three hours; for analgesic activity of the antagonists by themselves: 5 mg/kg i.p. As for the experimental part: Male Sprague Dawley rats (200 g average body weight, Harlan, Israel) are transiently sedated by placement on dry ice for the duration of the injections. […] Before induction of inflammatory pain and three hours after injection, the animals reactions to pain stimuli were tested in two systems. The first stimulus was thermal and assessed by the Plantar Test according to Hargreaves, using Ugo Basile Model 7370. The scale was set to an intensity of 50 arbitrary units. The latency time till the animal lift a paw as a reaction to the thermal stimulus was recorded for both the inflamed and non-inflamed hind paws. The second stimulus was mechanical (tactile) and assessed using a Dynamic Plantar Sesthesiomether (Ugo Basile Model 73400-002).
The results are measured as the differences between the two hind paws at time 0 and 3 hours both as ALT, for the latency time in the thermal part of the study, and as ΔForce, for the mechanical part of the study.
On the technique in general: In the carrageenan paw model, swelling and tenderness develop within hours.

Another experiment concerns Female Balb/c mice. As for the experimental part: The purpose of this study is to test in vivo the anti-inflammatory activity of the compounds in paw edema induced by injection of 1% carrageenan in the animal hind paw. Female Balb/c mice (20 g average body weight, Harlan, Israel) are anesthetized with a combination of xylazine and pentobarbitone diluted in sterile saline, 15 and 6 mg/kg i.p. respectively. Anesthetized mice are injected subcutaneously, in the subplantar region of one (right) paw with 0.05 ml of 1% w/v Carrageenan in sterile water. […] The test compounds, including known anti-inflammatory controls, are dissolved in CREMOPHOR EL®:ethanol and further diluted 1:20 or 1:50 in sterile saline prior to i.p. injection that takes place immediately before the carrageenan injection. Three hours after injection the animals are resedated following the previously described procedure. Paw thickness is measured using a dial thickness gauge (Spring-dial, constant low pressure gauge, Mitutoyo, TG/L-1, 0.01 mm) and paw volume is measured using a plethysmometer (model #7150, Ugo Basile, Italy). Paw Edema is expressed as the difference between the right treated and the left untreated paws of the same animal, either as Δ Paw Volume (ΔPV) in millimeters cube or as Δ Paw Thickness (ΔPT) in millimeters. Each group comprises at least 10 animals. […] At the end of the study, animals are euthanized with an i.p. injection of 100 mg/kg pentobarbitone.
The differences among various treatment groups are analyzed by analysis of variance (ANOVA) followed by post-hoc Fisher test. A value of p<0.05 is considered to be statistically significant.
For sake of comparison, known anti-inflammatory drugs such as Celecoxib and Dexamethasone yield respectively in the range of relevant doses 7% and 26% reduction in paw thickness at 0.1 mg/kg, 16% and 31% at 0.25 mg/kg and 24% and 33% at 0.5 mg/kg. […] It should be kept in mind that these commercially available drugs display serious side effects that prevent chronic uses without complementary protective medication.

The mark [1] stands for this setting: 10 mg/kg i.p., 330 minutes (five and a half hours).

Usually IC50 stands for the concentration at which inhibition is half-maximal.

Like-named read-outs stand apart in the source and are kept apart here.

human CB2 receptor, sequence (P34972 whole entry): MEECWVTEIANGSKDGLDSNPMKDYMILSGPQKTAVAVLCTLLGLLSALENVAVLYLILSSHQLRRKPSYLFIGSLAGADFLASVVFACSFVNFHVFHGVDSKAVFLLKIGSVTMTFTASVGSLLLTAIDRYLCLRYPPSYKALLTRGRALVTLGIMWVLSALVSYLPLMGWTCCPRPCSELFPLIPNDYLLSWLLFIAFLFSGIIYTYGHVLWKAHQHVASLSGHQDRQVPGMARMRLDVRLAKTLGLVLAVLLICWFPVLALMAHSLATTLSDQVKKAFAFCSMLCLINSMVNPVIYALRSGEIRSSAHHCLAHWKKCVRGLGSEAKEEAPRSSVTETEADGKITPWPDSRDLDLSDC
T1 sequence (P21554 whole entry): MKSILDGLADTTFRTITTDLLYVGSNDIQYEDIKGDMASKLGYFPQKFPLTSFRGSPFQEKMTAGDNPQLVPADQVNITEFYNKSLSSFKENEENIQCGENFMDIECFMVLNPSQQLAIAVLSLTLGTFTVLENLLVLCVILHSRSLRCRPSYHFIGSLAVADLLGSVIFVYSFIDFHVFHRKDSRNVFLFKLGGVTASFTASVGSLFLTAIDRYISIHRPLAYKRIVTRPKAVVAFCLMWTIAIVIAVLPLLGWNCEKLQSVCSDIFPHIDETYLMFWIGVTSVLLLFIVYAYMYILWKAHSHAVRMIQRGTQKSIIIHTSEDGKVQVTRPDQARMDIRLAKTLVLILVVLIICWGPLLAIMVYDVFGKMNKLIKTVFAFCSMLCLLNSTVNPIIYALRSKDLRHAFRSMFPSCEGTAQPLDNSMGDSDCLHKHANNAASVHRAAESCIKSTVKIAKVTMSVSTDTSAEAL

As for `CCCCCCC(C)(C)c1cc(O)c([C@@H]2CC(=O)C3CC2C3(C)C)c(O)c1` (single isomer, unassigned; (+)) [(+) enantiomer of compound A, reference compound], on human CB2 receptor, the CB2/CB1 affinity ratio was determined as 10. In the experiment with ICR male mice (4 mg/kg i.p., thirty minutes), this molecule registered a latency time of 2.4 s.
Take `C#CCCCCC(C)(C)c1cc(O)c(C2C=C(C)C3CC2C3(C)C)c(O)c1` (single isomer, unassigned; (+)) [Compound E, (+)-5-(1,1-Dimethyl-hept-6-ynyl)-2-(4,6,6-trimethyl-bicyclo[3.1.1]hept-3-en-2-yl)-benzene-1,3-diol]: on human CB2 receptor, the CB2/CB1 affinity ratio came to 33 and the IC50 worked out at 0.783 nM. Besides, on human CB1 receptor, the IC50 was determined as 26 nM.
For `CC(C)(c1ccc(Cl)cc1)c1cc(O)c(C2CC(=O)C3CC2C3(C)C)c(O)c1` (single isomer, unassigned; (-)) [Compound J, (−)-4-{4-[1-(4-Chloro-phenyl)-1-methyl-ethyl]-2,6-dihydroxy-phenyl]-6,6-dimethyl-bicyclo[3.1.1]heptan-2-one], at human CB2 receptor, the CB2/CB1 affinity ratio was 60 and the IC50 was 11 nM. For the same molecule, the IC50 at human CB1 receptor was 659 nM.
Take `CCC(C)(CC)c1cc(O)c(C2CC(=O)C3CC2C3(C)C)c(O)c1` (single isomer, unassigned; (-)) [Compound M, (−)-4-[4-(1-Ethyl-1-methyl-propyl)-2,6-dihydroxy-phenyl]-6,6-dimethyl-bicyclo[3.1.1]heptan-2-one]: on human CB2 receptor, the CB2/CB1 affinity ratio is given as 96 and the IC50 worked out at 40.8 nM. Besides, the IC50 at human CB1 receptor came to 3900 nM.
As for `CCCCCCC(C)(C)c1cc(O)c(C2CC(=O)[C@H]3C[C@@H]2C3(C)C)c(OC(=O)/C=C/C(=O)O)c1` (single isomer, unassigned; (-)) [Compound Z, (−)-4-{4-[1,1-Dimethyl-heptyl]-2-fumarate-6-hydroxy-phenyl}-6,6-dimethyl-bicyclo[3.1.1]heptan-2-one], on human CB2 receptor, the CB2/CB1 affinity ratio amounted to 656 and the IC50 was 1.2 nM. In the experiment with Male Sprague Dawley rats, the “ΔForce (tactile stimulus)” value amounted to 2 g. On human CB1 receptor, the IC50 was found to be 816 nM. For the same molecule, in the experiment on ICR male mice (setting [1]), the “% animals showing increased analgesia” value is given as “about 60%” and the latency time came to 5.2 s.
In the case of `Cc1ccc(-c2cc(C(F)(F)F)nn2-c2ccc(S(N)(=O)=O)cc2)cc1` [Celecoxib, reference compound], the figures for the “reduction in paw thickness” value in the experiment with Female Balb/c mice (0.1 mg/kg), in the experiment on Female Balb/c mice (0.25 mg/kg) and in the experiment on Female Balb/c mice (0.5 mg/kg) were 7%, 16% and 24%, respectively. The “ΔLT (thermal stimulus)” value in the experiment with Male Sprague Dawley rats worked out at 0 s.
For `CCCCC(C)(C)c1cc(O)c(C2C=C(COC(=O)C(C)(C)C)[C@H]3C[C@@H]2C3(C)C)c(O)c1` (stereo partly drawn) [Compound AH, 2,2-dimethylpropionic Acid-4-{4-[1,1-Dimethyl-pentyl]-2,6-dihydroxy-phenyl}-6,6-dimethyl-bicyclo[3.1.1]hept-2-en-2-yl Methyl Ester], at human CB2 receptor, the CB2/CB1 affinity ratio amounted to 9.5 and the IC50 worked out at 42 nM. Also, on human CB1 receptor, the IC50 was 398 nM.
For `C#CCCCCC(C)(C)c1cc(O)c([C@H]2CC(=O)[C@H]3C[C@@H]2C3(C)C)c(O)c1` [Compound F], in that order: 38, 0.344 nM and 13 nM.
Take `CC(C)(CCc1ccccc1)c1cc(O)c(C2CC(=O)C3CC2C3(C)C)c(O)c1` (stereo not drawn) [Compound G, 4-[4-(1,1-Dimethyl-3-phenyl-propyl)-2,6-dihydroxy-phenyl]-6,6-dimethyl-bicyclo[3.1.1]heptan-2-one]: at human CB2 receptor, the CB2/CB1 affinity ratio is reported as 85 and the IC50 is 6.6 nM. Moreover, the IC50 on human CB1 receptor came out at 563 nM.
As for `CC1=CC(c2c(O)cc(-c3ccc(C(C)(C)C)cc3)cc2O)C2CC1C2(C)C` (stereo not drawn) [Compound Q, 5-(1,1-Dimethyl-ethyl-phenyl)-2-(4,6,6-trimethyl-bicyclo[3.1.1]hept-3-en-2-yl)-benzene-1,3-diol], at human CB2 receptor, the CB2/CB1 affinity ratio worked out at 53. Also, the IC50 was found to be 12 nM on human CB2 receptor and 640 nM on human CB1 receptor.
As for `O=C(O)Cc1ccccc1Nc1c(Cl)cccc1Cl` [Diclofenac, reference compound], in the experiment on Male Sprague Dawley rats, the “ΔForce (tactile stimulus)” value is given as 2 g and the “ΔLT (thermal stimulus)” value was 0 s.
`CC(C(=O)O)c1cccc(C(=O)c2ccccc2)c1` (stereo not drawn) [Ketoprofen, reference compound]: in the experiment with Male Sprague Dawley rats, the “ΔForce (tactile stimulus)” value amounted to 7 g and the “ΔLT (thermal stimulus)” value came out at 0 s.
Consider `Cc1c(C(=O)NN2CCCCC2)nn(-c2ccc(Cl)cc2Cl)c1-c1ccc(Cl)cc1` [SR141716A, reference compound], for which the “analgesic activity of the antagonists by themselves” value in the experiment with Male Sprague Dawley rats is reported as “no analgesic activity”.
Regarding SR144528 [reference compound], the “analgesic activity of the antagonists by themselves” value in the experiment on Male Sprague Dawley rats is “no analgesic activity”.
